# From US10426772B2, “Use of ergot alkaloids as an anthelmintic agent” (priority 2016, dated 2019)
# Tested on: S. mansoni
# Experiment: Curative efficacy against schistosome infection in mice
# Format: in vivo, Schistosoma mansoni
# Protocol: Assays testing the curative efficacy of compounds against schistosome infection were performed on mice 6 weeks after exposure to cerceria. Drugs were dosed as follows. Ergotamine (95 mg/kg) was solubilized in 50 μL DMSO and diluted in 200 μL trappsol-saline and delivered by intraperitoneal injection twice a day for one week. Praziquantel (50 mg/kg) was similarly solubilized and injected intraperitoneally once a day for one week. The negative control cohort was given twice daily injections of DMSO (50 μL) added to 200 μL trappsol-saline solution. Mice were weighed and euthanized at 49 days post infection. Worms were harvested and counted as in the hepatic shift assay. Spleen and livers were weighed, and a segment of intestine was excised from the most distal region of the rectum to 10 cm above the cecum. The small and large intestines were separated by cutting immediately above and below the cecum. Each was cut lengthwise to expose the lumen and thoroughly washed in NaCl (1.2%) to remove excrement. Intestines were laid flat with the intestinal mucosa facing upwards and clamped between two glass plates to allow visual inspection of eggs using a stereo microscope.
# Mice were injected with vehicle control (dmso), the current frontline anthelmintic (praziquantel) or ergotamine twice daily for one week at starting 42 days post infection.
# All animals were sacrificed 49 days post infection, and worms were harvested by dissection of the mesenteric vasculature, portal vein and liver. […] Schistosomes lay large numbers of eggs within the host mesenteric system, and these progress through stages of development over approximately 5 days which can be scored looking at samples of the intestinal mucosa (Pellegrino et al., 1965). Therefore, it is possible to visually determine whether drug treatment has arrested parasite egg laying by observing a lack of developing eggs. Sections of both the large and small intestines were examined and eggs were manually counted and scored according to developmental stage (representative stages of embryo development shown in FIG. 20H-I, top).
# [1] = infected mice, ergotamine 95 mg/kg i.p. twice a day, one week
structure (smiles),measurement,setting,value
CN1C[C@H](C(=O)N[C@]2(C)O[C@@]3(O)[C@@H]4CCCN4C(=O)[C@H](Cc4ccccc4)N3C2=O)C=C2c3cccc4[nH]cc(c34)C[C@H]21 [ergotamine],increase of liver relative to uninfected littermates,[1],15±34%
same,increase of spleen relative to uninfected littermates,[1],151±80%
same,reduction of worm burden relative to controls,"mice, ergotamine 95 mg/kg i.p. twice a day for one week from 42 days post infection, sacrificed day 49",65±10%
same,decrease in intestinal egg counts,"mice, ergotamine 95 mg/kg twice a day, praziquantel 50 mg/kg once a day, i.p., one week, versus vehicle control",96%
